Measurements from patent publication US11648254B2 (Kumquat Biosciences Inc., priority 2021, dated 2023).
Like-named read-outs stand apart in the source and are kept apart here.

Target: SOS1 (Homo sapiens (Human), UniProt Q07889)
Test: Ras-SOS interaction assay (HTRF)
Assay type: biochemical
Excerpt: The ability of any compound of the present disclosure to reduce a Ras protein signaling output by, e.g., interfering or disrupting interaction (or binding) between SOS1 and a Ras protein can be assessed in vitro. For example, the equilibrium interaction of human SOS1 (hSOS1) with human wildtype Kras or K-Ras mutant (e.g., hK-Ras G12C mutant, or hK-RasG12C) can be assessed as a proxy or an indication for a subject compound's ability to inhibit SOS. Detection of such interaction is achieved by measuring homogenous time-resolved fluorescence resonance energy transfer (HTRF) from (i) a fluorescence resonance energy transfer (FRET) donor (e.g., antiGST-Europium) that is bound to GST-tagged K-RasG12C to (ii) a FRET acceptor (e.g., anti-6His-XL665) bound to a His-tagged hSOS1.
The assay buffer can contain 5 mM HEPES pH 7.4, 150 mM NaCl, 10 mM EDTA, 1 mM DTT, 0.05% BSA, 0.0025% (v/v) Igepal and 100 mM KF. A Ras working solution is prepared in assay buffer containing typically 10 nM of the protein construct (e.g., GST-tagged hK-RasG12C) and 2 nM of the FRET donor (e.g., antiGST-Eu(K) from Cisbio, France). A SOS1 working solution is prepared in assay buffer containing typically 10 nM of the protein construct (e.g., His-hSOS1) and 10 nM of the FRET acceptor (e.g., anti-6His-XL665 from Cisbio, France). An inhibitor control solution is prepared in assay buffer containing 10 nM of the FRET acceptor without the SOS1 protein.
A fixed reaction mixture with or without test compound is transferred into a 384-well plate. Ras working solution is added to all wells of the test plate. SOS1 working solution is added to all wells except for those that are subsequently filled the inhibitor control solution. After approximately 60 min incubation, the fluorescence is measured with a M1000Pro plate reader (Tecan) using HTRF detection (excitation 337 nm, emission 1: 620 nm, emission 2: 665 nm). Compounds are tested in duplicates at different concentrations (for example, 10 μM, 2.5 μM, 0.63 μM, 0.16 μM, 0.04 μM, 0.01 μM test compound). The ratiometric data (i.e., emission 2 divided by emission 1) is used to calculate IC50 values against SOS1 using GraphPad Prism (GraphPad software).

[1] = K-RasG13D utilized, read-out: IC50 inhibition of SOS
[2] = K-RasG13D, read-out: IC50 value against SOS1

Chain of SOS1 (Q07889 564-1049): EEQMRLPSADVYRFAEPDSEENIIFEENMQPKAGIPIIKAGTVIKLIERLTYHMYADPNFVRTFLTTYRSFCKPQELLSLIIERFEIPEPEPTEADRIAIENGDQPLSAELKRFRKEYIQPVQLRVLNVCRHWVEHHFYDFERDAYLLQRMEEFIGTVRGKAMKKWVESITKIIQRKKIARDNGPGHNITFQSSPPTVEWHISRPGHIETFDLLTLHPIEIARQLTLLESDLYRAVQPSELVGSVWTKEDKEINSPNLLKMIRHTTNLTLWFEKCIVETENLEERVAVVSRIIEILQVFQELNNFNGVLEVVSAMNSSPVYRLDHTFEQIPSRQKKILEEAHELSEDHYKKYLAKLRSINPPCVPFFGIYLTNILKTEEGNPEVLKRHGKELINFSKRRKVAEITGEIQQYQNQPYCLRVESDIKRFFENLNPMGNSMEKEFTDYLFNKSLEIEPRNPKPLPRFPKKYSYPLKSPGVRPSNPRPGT

Row | IC50 [1] [nM] | IC50 [2] [nM] | Compound
1 | 100 to 1000 |  | COc1nc2ncnc(N[C@H](C)c3cccc(C(F)(F)CO)c3F)c2cc1N1CCS(=O)(=O)CC1 [Compound 279, (R)-4-(4-((1-(3-(1,1-difluoro-2-hydroxyethyl)-2-fluorophenyl)ethyl)amino)-7-methoxypyrido[2,3-d]pyrimidin-6-yl)thiomorpholine 1,1-dioxide]
2 | 100 to 1000 |  | COc1nc2ncnc(N[C@H](C)c3cccc(C(F)(F)F)c3F)c2cc1C1CCN(C)CC1 [Compound 281, (R)-N-(1-(2-fluoro-3-(trifluoromethyl)phenyl)ethyl)-7-methoxy-6-(1-methylpiperidin-4-yl)pyrido[2,3-d] pyrimidin-4-amine]
3 | 100 to 1000 |  | COc1nc2ncnc(N[C@H](C)c3cccc(C(F)(F)F)c3C)c2cc1C1CCN(C)CC1 [Compound 282, (R)-7-methoxy-N-(1-(2-methyl-3-(trifluoromethyl)phenyl)ethyl)-6-(1-methylpiperidin-4-yl)pyrido[2,3-d] pyrimidin-4-amine]
4 | < 100 |  | COc1nc2nc(C)nc(N[C@H](C)c3cccc(C(F)(F)C4CN(C(C)C)C4)c3F)c2cc1C1(C#N)CC1 [Compound 284, (R)-1-(4-((1-(3-(difluoro(1-isopropylazetidin-3-yl)methyl)-2-fluorophenyl)ethyl)amino)-7-methoxy-2-methylpyrido[2,3-d]pyrimidin-6-yl)cyclopropane-1-carbonitrile]
5 | 100 to 1000 |  | COc1nc2nc(OCC3CN(C(C)C)C3)nc(N[C@H](C)c3cccc(C(F)(F)F)c3F)c2cc1C1CCS(=O)(=O)CC1 [Compound 286, (R)-4-(4-((1-(2-fluoro-3-(trifluoromethyl)phenyl)ethyl)amino)-2-((1-isopropylazetidin-3-yl)methoxy)-7-methoxypyrido[2,3-d]pyrimidin-6-yl)tetrahydro-2H-thiopyran 1,1-dioxide]
6 | < 100 | < 50 | COc1nc2nc(C)nc(N[C@H](C)c3cccc(C(F)(F)F)c3F)c2cc1N1CCN(C2CCOCC2)CC1 [Compound 290, (R)-N-(1-(2-fluoro-3-(trifluoromethyl)phenyl)ethyl)-7-methoxy-2-methyl-6-(4-(tetrahydro-2H-pyran-4-yl)piperazin-1-yl)pyrido[2,3-d]pyrimidin-4-amine]
7 | < 100 |  | COc1nc2nc(C)nc(N[C@H](C)c3cccc(C(F)(F)F)c3F)c2cc1N1CCN(C(=O)[C@H]2COCCO2)CC1 [Compound 310, ((R)-1,4-dioxan-2-yl)(4-(4-(((R)-1-(2-fluoro-3-(trifluoromethyl)phenyl)ethyl)amino)-7-methoxy-2-methylpyrido[2,3-d]pyrimidin-6-yl)piperazin-1-yl)methanone]
8 | 100 to 1000 |  | COc1nc2nc(C)nc(N[C@H](C)c3cccc(C(F)(F)F)c3F)c2cc1N1CCN(C(=O)C2CN(C)CCO2)CC1 (stereo partly drawn) [Compound 311, (4-(4-(((R)-1-(2-fluoro-3-(trifluoromethyl)phenyl)ethyl)amino)-7-methoxy-2-methylpyrido[2,3-d]pyrimidin-6-yl)piperazin-1-yl)(4-methylmorpholin-2-yl)methanone]
9 | 100 to 1000 |  | Cc1nc(N[C@H](C)c2cccc(C(F)F)c2F)c2cc(C3(C#N)CC3)c(NCC(C)(C)O)nc2n1 [Compound 319, (R)-1-(4-((1-(3-(difluoromethyl)-2-fluorophenyl)ethyl)amino)-7-((2-hydroxy-2-methylpropyl)amino)-2-methylpyrido[2,3-d]pyrimidin-6-yl) cyclopropane-1-carbonitrile]
10 | < 100 | < 50 | Cc1nc(N[C@H](C)c2cccc(C(F)F)c2F)c2cc(N3CCN(C(C)C)CC3)c(NC3CNC3)nc2n1 [Compound 357, (R)-N7-(azetidin-3-yl)-N4-(1-(3-(difluoromethyl)-2-fluorophenyl)ethyl)-6-(4-isopropylpiperazin-1-yl)-2-methylpyrido[2,3-d]pyrimidine-4,7-diamine]
11 | < 100 | < 50 | Cc1nc(N[C@H](C)c2cccc(C(F)F)c2F)c2cc(N3CCN(C)CC3)c(OCCN(C)C)nc2n1 [Compound 371, (R)-N-(1-(3-(difluoromethyl)-2-fluorophenyl)ethyl)-7-(2-(dimethylamino)ethoxy)-2-methyl-6-(4-methylpiperazin-1-yl)pyrido[2,3-d] pyrimidin-4-amine]
12 | < 100 | < 50 | COc1nc2nc(C)nc(N[C@H](C)c3cccc(C(F)(F)F)c3F)c2cc1N1CCN(C(=O)[C@@H]2COCCO2)CC1 [Compound 382, ((S)-1,4-dioxan-2-yl)(4-(4-(((R)-1-(2-fluoro-3-(trifluoromethyl)phenyl)ethyl)amino)-7-methoxy-2-methylpyrido[2,3-d]pyrimidin-6-yl)piperazin-1-yl)methanone]
13 | 100 to 1000 |  | Cc1nc(N[C@H](C)c2cccc(C(F)F)c2F)c2cc(C3(C#N)CC3)c(NCC3COC3)nc2n1 [Compound 398, (R)-1-(4-((1-(3-(difluoromethyl)-2-fluorophenyl)ethyl)amino)-2-methyl-7-((oxetan-3-ylmethyl)amino)pyrido[2,3-d]pyrimidin-6-yl)cyclopropane-1-carbonitrile]
14 | 100 to 1000 |  | Cc1nc(N[C@H](C)c2cccc(C(F)F)c2F)c2cc(C3(C#N)CC3)c(OC3CCOCC3)nc2n1 [Compound 403, (R)-1-(4-((1-(3-(difluoromethyl)-2-fluorophenyl)ethyl)amino)-2-methyl-7-((tetrahydro-2H-pyran-4-yl)oxy)pyrido [2,3-d]pyrimidin-6-yl)cyclopropane-1-carbonitrile]
15 | 100 to 1000 |  | C[C@@H](Nc1ncnc2nc(OC3COC3)c(C3(C(F)F)CC3)cc12)c1cccc(C(F)F)c1F [Compound 408, (R)-N-(1-(3-(difluoromethyl)-2-fluorophenyl)ethyl)-6-(1-(difluoromethyl)cyclopropyl)-7-(oxetan-3-yloxy)pyrido[2,3-d]pyrimidin-4-amine]
16 | < 100 | < 50 | COc1nc2ncnc(N[C@H](C)c3cccc(C(F)F)c3F)c2cc1C1CCN(C2CCOCC2)CC1 [Compound 416, (R)-N-(1-(3-(difluoromethyl)-2-fluorophenyl)ethyl)-7-methoxy-6-(1-(tetrahydro-2H-pyran-4-yl)piperidin-4-yl)pyrido[2,3-d]pyrimidin-4-amine]
17 | 100 to 1000 |  | Cc1nc(N[C@H](C)c2cccc(C(F)(F)F)c2C)c2cc(C3(C#N)CC3)c(Cl)nc2n1 [Compound 423, (R)-1-(7-chloro-2-methyl-4-((1-(2-methyl-3-(trifluoromethyl)phenyl)ethyl)amino)pyrido[2,3-d]pyrimidin-6-yl)cyclopropane-1-carbonitrile]

Row | Compound | IC50 [1] [nM] | IC50 [2] [nM]
18 | COc1nc2ncnc(N[C@H](C)c3cccc(C(F)(F)F)c3F)c2cc1C1(C#N)CCN(C(C)C)CC1 [Compound 280, (R)-4-(4-((1-(2-fluoro-3-(trifluoromethyl)phenyl)ethyl)amino)-7-methoxypyrido[2,3-d]pyrimidin-6-yl)-1-isopropylpiperidine-4-carbonitrile] | 100 to 1000 | 
19 | COc1nc2nc(C)nc(N[C@H](C)c3cccc(C(F)(F)F)c3F)c2cc1C1(C#N)CCN(C(C)C)CC1 [Compound 306, (R)-4-(4-((1-(2-fluoro-3-(trifluoromethyl)phenyl)ethyl)amino)-7-methoxy-2-methylpyrido[2,3-d]pyrimidin-6-yl)-1-isopropylpiperidine-4-carbonitrile] | 100 to 1000 | 
